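Briefly, cells in 96-well plates were exposed to five compound concentrations for 48 h, and endpoints were estimated by linear interpolation. GI50 = concentration required for 50% inhibition of growth. TGI marks complete inhibition of growth.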
Key:
Assay in all cases: growth of human tumour cells (NCI), 48 h
[1] = system: HCC-2998 colon
[2] = system: UACC-62 melanoma
[3] = system: 786-0 renal
[4] = system: OVCAR-8 ovarian
[5] = system: NCI-H460 lung
[6] = system: RPMI-8226 leukemia
[7] = system: SK-MEL-28 melanoma
[8] = system: NCI-H226 lung
[9] = system: ACHN renal
[10] = system: PC-3 prostate
[11] = system: SR leukemia
[12] = system: HOP-92 NSCLC
[13] = system: HOP-62 NSCLC
[14] = system: UACC-257 melanoma
[15] = system: CAKI-1 renal
[16] = system: MOLT-4 leukemia
[17] = system: K-562 leukemia
[18] = system: SF-539 CNS
[19] = system: SF-268 CNS
[20] = system: HCT-15 colon
[21] = system: OVCAR-4 ovarian
[22] = system: M14 melanoma
[23] = system: MALME-3M melanoma
[24] = system: CCRF-CEM leukemia
[25] = system: SF-295 CNS
[26] = system: SNB-19 CNS
[27] = system: EKVX NSCLC
[28] = system: DU-145 prostate
[29] = system: SNB-75 CNS
[30] = system: T-47D breast
[31] = system: NCI-H23 lung
[32] = system: OVCAR-5 ovarian
[33] = system: SK-MEL-5 melanoma
[34] = system: MDA-MB-435
[35] = system: KM12 colon
[36] = system: SW-620 colon
[37] = system: HT29 colon
[38] = system: HCT-116 colon
[39] = system: SK-OV-3 ovarian
[40] = system: TK-10 renal
[41] = system: NCI/ADR-RES ovarian
[42] = system: U251 CNS
[43] = system: BT-549 breast
[44] = system: HL-60(TB) leukemia
[45] = system: NCI-H522 lung
[46] = system: OVCAR-3 ovarian
[47] = system: A549 NSCLC
[48] = system: MCF7 breast
[49] = system: MDA-MB-231 breast
[50] = system: LOX IMVI melanoma
[51] = system: IGROV1 ovarian
[52] = system: UO-31 renal
[53] = system: SN12C renal
[54] = system: COLO 205 colon

## NC(Cc1c[nH]c2c(O)cccc12)C(=O)O (stereo not drawn)
[1]
  GI50: > 100 µM
  TGI: > 100 µM
[2]
  GI50: > 100 µM
  TGI: > 100 µM
[3]
  GI50: > 100 µM
  TGI: > 100 µM
[4]
  GI50: > 100 µM
  TGI: > 100 µM
[5]
  GI50: > 100 µM
  TGI: > 100 µM
[6]
  GI50: > 100 µM
  TGI: > 100 µM
[7]
  GI50: > 100 µM
  TGI: > 100 µM
[8]
  GI50: > 100 µM
  TGI: > 100 µM
[9]
  GI50: > 100 µM
  TGI: > 100 µM
[10]
  GI50: > 100 µM
  TGI: > 100 µM
[11]
  GI50: > 100 µM
  TGI: > 100 µM
[12]
  GI50: > 100 µM
  TGI: > 100 µM
[13]
  GI50: > 100 µM
  TGI: > 100 µM
[14]
  GI50: > 100 µM
  TGI: > 100 µM
[15]
  GI50: > 100 µM
  TGI: > 100 µM
[16]
  GI50: > 100 µM
  TGI: > 100 µM
[17]
  GI50: > 100 µM
  TGI: > 100 µM
[18]
  GI50: > 100 µM
  TGI: > 100 µM
[19]
  GI50: > 100 µM
  TGI: > 100 µM
[20]
  GI50: > 100 µM
  TGI: > 100 µM
[21]
  GI50: > 100 µM
  TGI: > 100 µM
[22]
  GI50: > 100 µM
  TGI: > 100 µM
[23]
  GI50: > 100 µM
  TGI: > 100 µM
[24]
  GI50: > 100 µM
  TGI: > 100 µM
[25]
  GI50: > 100 µM
  TGI: > 100 µM
[26]
  GI50: > 100 µM
  TGI: > 100 µM
[27]
  GI50: > 100 µM
  TGI: > 100 µM
[28]
  GI50: > 100 µM
  TGI: > 100 µM
[29]
  GI50: > 100 µM
  TGI: > 100 µM
[30]
  GI50: > 100 µM
  TGI: > 100 µM
[31]
  GI50: > 100 µM
  TGI: > 100 µM
[32]
  GI50: > 100 µM
  TGI: > 100 µM
[33]
  GI50: 49.6 µM
  TGI: > 100 µM
[34]
  GI50: > 100 µM
  TGI: > 100 µM
[35]
  GI50: > 100 µM
  TGI: > 100 µM
[36]
  GI50: > 100 µM
  TGI: > 100 µM
[37]
  GI50: > 100 µM
  TGI: > 100 µM
[38]
  GI50: > 100 µM
  TGI: > 100 µM
[39]
  GI50: > 100 µM
  TGI: > 100 µM
[40]
  GI50: > 100 µM
  TGI: > 100 µM
[41]
  GI50: > 100 µM
  TGI: > 100 µM
[42]
  GI50: > 100 µM
  TGI: > 100 µM
[43]
  GI50: > 100 µM
  TGI: > 100 µM
[44]
  GI50: > 100 µM
  TGI: > 100 µM
[45]
  GI50: > 100 µM
  TGI: > 100 µM
[46]
  GI50: > 100 µM
  TGI: > 100 µM
[47]
  GI50: > 100 µM
  TGI: > 100 µM
[48]
  GI50: > 100 µM
  TGI: > 100 µM
[49]
  GI50: > 100 µM
  TGI: > 100 µM
[50]
  GI50: > 100 µM
  TGI: > 100 µM
[51]
  GI50: > 100 µM
  TGI: > 100 µM
[52]
  GI50: > 100 µM
  TGI: > 100 µM
[53]
  GI50: > 100 µM
  TGI: > 100 µM
[54]
  GI50: > 100 µM
  TGI: > 100 µM

— PubChem BioAssay (NCI)
